Results published in the supplement of paper PMC10307832.

Columns and labels:
Assay in all cases: relative viability (nuclei count vs DMSO), 5 days (fraction); higher = more cells survive
Bortezomib + Lapatinib = compound: CC(C)C[C@H](NC(=O)[C@H](Cc1ccccc1)NC(=O)c1cnccn1)B(O)O [Bortezomib] + CS(=O)(=O)CCNCc1ccc(-c2ccc3ncnc(Nc4ccc(OCc5cccc(F)c5)c(Cl)c4)c3c2)o1 [Lapatinib] (partner 2 µM)
Outline: (§1)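 Relative viability divides the nuclei count in treated wells by that in vehicle wells. Lung cancer cell lines were seeded in 1536-well plates, dosed by pin tool the next day, and fixed and stained after 5 days in one step with final 0.05% Triton X-100, 1% formaldehyde and 1 ug/ml Hoechst. Dosing was a single drug or a fixed anchor-drug dose plus five library-drug doses (not always all listed) in √10 steps, and values are medians of duplicate plates imaged at 4×.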

[1] = compound: CC1=CC(=NN1)NC2=CC(=NC(=N2)/C=C/C3=CC=CC=C3)N4CCN(CC4)C + N=C(N)NC(=N)NCCc1ccccc1 [Phenformin] (partner 250 µM)
Outline: as §1

[2] = compound: CC1=CC(=NN1)NC2=CC(=NC(=N2)/C=C/C3=CC=CC=C3)N4CCN(CC4)C + Nc1nc2[nH]cc(CCc3ccc(C(=O)N[C@@H](CCC(=O)O)C(=O)O)cc3)c2c(=O)[nH]1 [Pemetrexed] (partner 0.2 µM)
Outline: as §1

Bortezomib + Crizotinib = compound: CC(C)C[C@H](NC(=O)[C@H](Cc1ccccc1)NC(=O)c1cnccn1)B(O)O [Bortezomib] + C[C@@H](Oc1cc(-c2cnn(C3CCNCC3)c2)cnc1N)c1c(Cl)ccc(F)c1Cl [Crizotinib] (partner 1 µM)
Outline: as §1

NCI-H650
relative viability (Bortezomib + Lapatinib; first compound 0.000632 µM): 0.596 | relative viability (Bortezomib + Lapatinib; first compound 0.002 µM): 1.02 | relative viability (Bortezomib + Lapatinib; first compound 0.006325 µM): 0.382 | relative viability (Bortezomib + Lapatinib; first compound 0.02 µM): 0.175 | relative viability ([1]; first compound 0.253 µM): 0.521 | relative viability ([1]; first compound 0.8 µM): 0.483 | relative viability ([1]; first compound 2.53 µM): 0.371 | relative viability ([1]; first compound 8 µM): 0.181 | relative viability ([2]; first compound 0.08 µM): 1.01 | relative viability ([2]; first compound 0.253 µM): 1.08 | relative viability ([2]; first compound 0.8 µM): 1.01 | relative viability ([2]; first compound 2.53 µM): 0.727 | relative viability ([2]; first compound 8 µM): 0.307 | relative viability (Bortezomib + Crizotinib; first compound 0.000632 µM): 0.753 | relative viability (Bortezomib + Crizotinib; first compound 0.002 µM): 0.584 | relative viability (Bortezomib + Crizotinib; first compound 0.006325 µM): 0.25 | relative viability (Bortezomib + Crizotinib; first compound 0.02 µM): 0.177
